Inhibition data for eight molecules are collected here from US9187471B2, “Pyrido [4,3-b] indole and pyrido [3,4-b] indole derivatives and methods of use” (Medivation Technologies, Inc., priority 2010, dated 2015).

Structures are written as SMILES.

Assay [1] deals with T1, rat adrenergic α1A receptor (Rattus norvegicus, UniProt P43140).
T1 construct: rat adrenergic α1A receptor obtained from Wistar Rat submaxillary glands; from tissue; host or cells: Wistar rat submaxillary glands
T1 sequence (P43140 1-466): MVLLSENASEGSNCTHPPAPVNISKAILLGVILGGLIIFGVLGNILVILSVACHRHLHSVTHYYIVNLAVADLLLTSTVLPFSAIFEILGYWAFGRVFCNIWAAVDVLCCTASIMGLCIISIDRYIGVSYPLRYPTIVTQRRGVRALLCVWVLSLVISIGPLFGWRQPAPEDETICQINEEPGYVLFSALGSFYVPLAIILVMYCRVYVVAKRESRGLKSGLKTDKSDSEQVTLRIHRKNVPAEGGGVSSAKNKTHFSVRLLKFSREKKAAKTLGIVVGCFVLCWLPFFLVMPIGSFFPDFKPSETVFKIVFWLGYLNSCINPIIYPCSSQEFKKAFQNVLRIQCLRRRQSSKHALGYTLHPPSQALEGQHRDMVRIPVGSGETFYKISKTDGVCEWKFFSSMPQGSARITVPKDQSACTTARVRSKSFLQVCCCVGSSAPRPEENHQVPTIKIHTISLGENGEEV
Nature of the assay: Adrenergic α1A radioligand binding ([3H]Prazosin). Particulars: read-out: Adrenergic (0.1 μM) a1A, percent inhibition of specific binding; compound at 0.1 μM; 0.25 nM [3H]Prazosin. In short, it runs like this:
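Wistar rat submaxillary gland receptor in 50 mM Tris-HCl pH 7.4 with 0.5 mM EDTA, incubated with compound and 0.25 nM [3H]Prazosin for 60 min at 25 °C.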

The target in assay [2] is T2, human recombinant dopamine D2L receptor (Homo sapiens, UniProt P14416).
T2 construct: expressed in transfected cells; host or cells: CHO
T2 sequence (P14416 whole entry): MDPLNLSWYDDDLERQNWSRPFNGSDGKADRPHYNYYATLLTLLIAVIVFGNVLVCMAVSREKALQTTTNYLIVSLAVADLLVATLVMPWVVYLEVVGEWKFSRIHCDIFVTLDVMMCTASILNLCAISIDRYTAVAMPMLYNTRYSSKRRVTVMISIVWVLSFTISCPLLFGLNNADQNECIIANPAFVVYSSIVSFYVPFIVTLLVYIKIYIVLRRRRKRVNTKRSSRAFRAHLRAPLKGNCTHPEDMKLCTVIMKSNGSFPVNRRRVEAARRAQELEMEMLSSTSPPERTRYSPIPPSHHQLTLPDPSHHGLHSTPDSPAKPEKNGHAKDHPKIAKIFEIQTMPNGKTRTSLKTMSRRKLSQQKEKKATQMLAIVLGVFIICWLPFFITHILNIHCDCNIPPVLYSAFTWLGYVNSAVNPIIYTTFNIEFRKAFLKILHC
In words: Dopamine D2L radioligand binding ([3H]Spiperone). The following applies: read-out: Dopamine D2L (1 μM), percent inhibition of specific binding; compound at 1 μM; 0.16 nM [3H]Spiperone. The procedure: Non-specific binding was estimated in the presence of 10 μM Haloperidol. Receptor proteins were filtered and washed, the filters were then counted to determine [^3H]Spiperone specifically bound.

The target in another assay is T3, Adrenergic α1B (Rattus norvegicus, UniProt P15823).
T3 construct: rat adrenergic α1D receptor obtained from Wistar Rat liver; from tissue; host or cells: Wistar rat liver
T3 sequence (P15823 1-515): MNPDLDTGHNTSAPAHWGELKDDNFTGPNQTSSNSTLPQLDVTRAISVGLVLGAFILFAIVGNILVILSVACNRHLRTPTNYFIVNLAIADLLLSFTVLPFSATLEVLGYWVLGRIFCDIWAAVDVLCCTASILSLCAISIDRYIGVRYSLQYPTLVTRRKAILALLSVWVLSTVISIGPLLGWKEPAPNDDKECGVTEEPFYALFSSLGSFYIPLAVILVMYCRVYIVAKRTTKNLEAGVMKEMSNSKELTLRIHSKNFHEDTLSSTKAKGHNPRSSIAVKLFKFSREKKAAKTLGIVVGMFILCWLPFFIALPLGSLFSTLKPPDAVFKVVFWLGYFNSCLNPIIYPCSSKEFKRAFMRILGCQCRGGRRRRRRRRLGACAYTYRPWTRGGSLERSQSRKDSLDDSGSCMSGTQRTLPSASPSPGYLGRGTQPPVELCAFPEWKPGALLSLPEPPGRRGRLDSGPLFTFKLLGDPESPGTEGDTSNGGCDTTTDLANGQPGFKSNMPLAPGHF
Nature of the assay: Adrenergic α1B radioligand binding ([3H]Prazosin). Particulars: read-out: Adrenergic (0.1 μM) a1B, percent inhibition of specific binding; compound at 0.1 μM; 0.25 nM [3H]Prazosin; Wistar Rat liver.

For assay [3], the target named is T4, human recombinant adrenergic α2A receptor (Homo sapiens, UniProt P08913).
T4 construct: expressed in transfected cells; host or cells: insect Sf9 cells
T4 sequence (P08913 1-465): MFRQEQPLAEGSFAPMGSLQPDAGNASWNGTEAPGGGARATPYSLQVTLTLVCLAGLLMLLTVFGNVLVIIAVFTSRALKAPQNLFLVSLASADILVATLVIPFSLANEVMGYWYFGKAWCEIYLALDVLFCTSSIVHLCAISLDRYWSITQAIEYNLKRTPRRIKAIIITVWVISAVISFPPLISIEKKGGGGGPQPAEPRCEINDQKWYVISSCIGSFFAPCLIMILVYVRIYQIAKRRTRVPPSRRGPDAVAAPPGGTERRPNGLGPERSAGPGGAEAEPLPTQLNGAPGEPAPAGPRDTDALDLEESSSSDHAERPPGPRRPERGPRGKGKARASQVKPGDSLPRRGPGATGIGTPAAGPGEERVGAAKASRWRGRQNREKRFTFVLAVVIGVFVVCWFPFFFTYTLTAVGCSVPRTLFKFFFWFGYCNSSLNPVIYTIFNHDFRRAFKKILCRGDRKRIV
Nature of the assay: Adrenergic α2A radioligand binding ([3H]MK-912). Particulars: read-out: Adrenergic (0.1 μM) a2A, percent inhibition of specific binding; compound at 0.1 μM; 1 nM [3H]MK-912. The procedure:
To evaluate in radioligand binding assays the activity of compounds of the invention, human recombinant adrenergic α2A receptor expressed in insect Sf9 cells (Uhlen, S. et al, J. Pharmacol. Exp. Ther. 271:1558, 1994) in a modified Tris-HCl buffer (50 mM Tris-HCl, pH 7.4, 12.5 mM MgCl2, 2 mM EDTA) was used. Compounds of invention were incubated with 1 nM [^3H]MK-912 for 60 min at 25° C. MK-912 is (2S-trans)-1,3,4,5′,6,6′,7,12b-octahydro-1′,3′-dimethyl-spiro[2H-benzofuro[2,3-a]quinolizine-2,4′(1′H)-pyrimidin]-2′(3′H)-one hydrochloride Non-specific binding was estimated in the presence of 10 μM WB-4101 (2-(2,6-Dimethoxyphenoxyethyl)aminomethyl-1,4-benzodioxane hydrochloride). Receptor proteins were filtered and washed, the filters were then counted to determine [^3H]MK-912 specifically bound. […] Compounds of the invention were tested in this biochemical assay and percent inhibition of specific binding was determined.

Description for Adrenergic α1B: To evaluate in radioligand binding assays the activity of compounds of the invention, rat adrenergic α1D receptor obtained from Wistar Rat liver (Garcia-S'ainz, J. et al, Biochem. Biophys. Res. Commun. 186:760, 1992; Michel, A. et al, Br. J. Pharmacol. 98:883, 1989) in a modified Tris-HCl buffer (50 mM Tris-HCl buffer, pH 7.4, 0.5 mM EDTA) was used. Compounds of the invention were incubated with 0.25 nM [^3H]Prazosin for 60 min at 25° C. Non-specific binding was estimated in the presence of 10 μM phentolamine Receptor proteins were filtered and washed, the filters were then counted to determine [^3H]Prazosin specifically bound. […] Compounds of the invention were tested in this biochemical assay and percent inhibition of specific binding was determined.

`Cc1ccc2c(c1)c1c(n2-c2ccccc2-c2cccc3[nH]ncc23)CCN(C)C1` [Compound No. 105, 5-(2-(1H-indazol-4-yl)phenyl)-2,8-dimethyl-2,3,4,5-tetrahydro-1H-pyrido[4,3-b]indole]: in assay [1], the inhibition – broadly, the drop in the measured response relative to a control, in per cent – at 0.1 µM came out at 55%. Also, the inhibition at 1 µM in assay [2] was found to be 3%.
As for `Cc1ccc2c(c1)c1c(n2-c2ccccc2-c2cnn(C)c2)CCN(C)C1` [Compound No. 86, 2,8-dimethyl-5-(2-(1-methyl-1H-pyrazol-4-yl)phenyl)-2,3,4,5-tetrahydro-1H-pyrido[4,3-b]indole], the inhibition at 0.1 µM in assay [1] was found to be 17%. Moreover, in assay [2], the inhibition at 1 µM amounted to 6%.
The like results for `Cc1ccc2c(c1)c1c(n2-c2cnc3ccccc3c2)CCN(C)C1` [Compound No. 88, 2,8-dimethyl-5-quinolin-3-yl-2,3,4,5-tetrahydro-1H-pyrido[4,3-b]indole] were, in that order, 20% and 7%.
In the case of `Cc1ccc2c(c1)c1c(n2-c2ccccc2-c2cn[nH]c2)CCN(C)C1` [Compound No. 104, 5-(2-(1H-pyrazol-4-yl)phenyl)-2,8-dimethyl-2,3,4,5-tetrahydro-1H-pyrido[4,3-b]indole], the results for the inhibition at 0.1 µM (in assay [1]; at Adrenergic α1B; in assay [3]) were 4%, 9% and 14%, respectively. The inhibition at 1 µM in assay [2] was -1%.
Regarding `Cc1ccc2c(c1)c1c(n2-c2ccccc2-c2cc3ccccc3s2)CCN(C)C1` [Compound No. 103, 5-(2-(benzo[b]thiophen-2-yl)phenyl)-2,8-dimethyl-2,3,4,5-tetrahydro-1H-pyrido[4,3-b]indole], the inhibition at 0.1 µM in assay [1] was 44%. Also, the inhibition at 1 µM in assay [2] stood at 10%.
With `Cc1ccc2c(c1)c1c(n2-c2ccccc2-c2sccc2C)CCN(C)C1` [Compound No. 102, 2,8-dimethyl-5-(2-(3-methylthiophen-2-yl)phenyl)-2,3,4,5-tetrahydro-1H-pyrido[4,3-b]indole], the inhibition at 0.1 µM in assay [1] is 28%. The inhibition at 1 µM in assay [2] worked out at 48%.
As for `Cc1ccc2c(c1)c1c(n2-c2ccccc2-c2cncc3ccccc23)CCN(C)C1` [Compound No. 87, 5-(2-(isoquinolin-4-yl)phenyl)-2,8-dimethyl-2,3,4,5-tetrahydro-1H-pyrido[4,3-b]indole], the inhibition at 0.1 µM in assay [1] amounted to 8%. In addition, in assay [2], the inhibition at 1 µM came out at 10%.
As to `Cc1ccc2c(c1)c1c(n2-c2ccccc2-c2cccn2C)CCN(C)C1` [Compound No. 100, 2,8-dimethyl-5-(2-(1-methyl-1H-pyrrol-2-yl)phenyl)-2,3,4,5-tetrahydro-1H-pyrido[4,3-b]indole], the values for the inhibition at 0.1 µM in assay [1] and in assay [3] were 46% and 95%, respectively. For the same molecule, the inhibition at 1 µM in assay [2] came to 11%.
